The source made the active and inactive calls. The calls are words filed in the database; no cut-off is given here.
Columns and labels:
Type in all cases: functional, cell-based
[1] = Cardioprotective activity against hypoxia-induced neonatal rat ventricular myocytes damage assessed as increase in hydrogen sulfide level at 1 uM treated 12 hrs before hypoxia challenge measured after 5 hrs; settings: Ventricular myocyte
[2] = tested on: Ventricular myocyte; experiment: Cardioprotective activity against hypoxia-induced neonatal rat ventricular myocytes damage assessed as increased cell viability at 1 uM treated 12 hrs before hypoxia challenge measured after 5 hrs by MTT assay
[3] = Cardioprotective activity against hypoxia-induced neonatal rat ventricular myocytes damage assessed as decrease of LDH release at 1 uM treated 12 hrs before hypoxia challenge measured after 5 hrs; settings: Ventricular myocyte
[4] = Cardioprotective activity against hypoxia-induced neonatal rat ventricular myocytes damage assessed as decrease of creatine kinase release at 1 uM treated 12 hrs before hypoxia challenge measured after 5 hrs; settings: Ventricular myocyte
[5] = tested on: Ventricular myocyte; experiment: Cardioprotective activity against hypoxia-induced neonatal rat ventricular myocytes damage assessed as increased cell viability at 0.1 uM treated 12 hrs before hypoxia challenge measured after 5 hrs by MTT assay
[6] = Cardioprotective activity against hypoxia-induced neonatal rat ventricular myocytes damage assessed as decrease of LDH release at 0.1 uM treated 12 hrs before hypoxia challenge measured after 5 hrs; settings: Ventricular myocyte
[7] = Cardioprotective activity against hypoxia-induced neonatal rat ventricular myocytes damage assessed as decrease of creatine kinase release at 0.1 uM treated 12 hrs before hypoxia challenge measured after 5 hrs; settings: Ventricular myocyte
[8] = Cardioprotective activity against hypoxia-induced neonatal rat ventricular myocytes damage assessed as increase in hydrogen sulfide level at 0.1 uM treated 12 hrs before hypoxia challenge measured after 5 hrs; settings: Ventricular myocyte
[9] = Cardioprotective activity against hypoxia-induced neonatal rat ventricular myocytes damage assessed as increase in superoxide dismutase activity against 0.1 uM treated 12 hrs before hypoxia challenge measured after 5 hrs; settings: Ventricular myocyte
[10] = Cardioprotective activity against hypoxia-induced neonatal rat ventricular myocytes damage assessed as decrease in malondialdehyde level at 0.1 uM treated 12 hrs before hypoxia challenge measured after 5 hrs; settings: Ventricular myocyte
[11] = Antiapoptotic activity against hypoxia-induced neonatal rat ventricular myocytes damage assessed as decrease in nuclear condensation at 0.1 uM using Hoechst 33258 staining by fluorescence microscopy; settings: Ventricular myocyte
[12] = Antiapoptotic activity against hypoxia-induced neonatal rat ventricular myocytes damage assessed as decrease in nuclei-shrunk at 0.1 uM using Hoechst 33258 staining by fluorescence microscopy; settings: Ventricular myocyte
[13] = tested on: Ventricular myocyte; experiment: Cardioprotective activity against hypoxia-induced neonatal rat ventricular myocytes damage assessed as increased cell viability at 10 uM treated 12 hrs before hypoxia challenge measured after 5 hrs by MTT assay
[14] = Cardioprotective activity against hypoxia-induced neonatal rat ventricular myocytes damage assessed as decrease of LDH release at 10 uM treated 12 hrs before hypoxia challenge measured after 5 hrs; settings: Ventricular myocyte
[15] = Cardioprotective activity against hypoxia-induced neonatal rat ventricular myocytes damage assessed as decrease of creatine kinase release at 10 uM treated 12 hrs before hypoxia challenge measured after 5 hrs; settings: Ventricular myocyte
[16] = Cardioprotective activity against hypoxia-induced neonatal rat ventricular myocytes damage assessed as increase in hydrogen sulfide level at 10 uM treated 12 hrs before hypoxia challenge measured after 5 hrs; settings: Ventricular myocyte

With `COc1cc(C(=O)OCCCCNC(=N)N)cc(OC)c1O` the Activity [1] was “inactive”, the Activity [2] was “Active” and the Activity [3] was “Active”. For the same molecule, the Activity [4] was “Active”.
For `C#CCSC[C@H](N)C(=O)Oc1c(OC)cc(C(=O)OCCCCNC(=N)N)cc1OC`, the Activity [5] was “Non-toxic”, the Activity [6] was “Active” and the Activity [7] was “Active”. The Activity [8] was 21.5 µmol/L, the Activity [9] was “Active” and the Activity [10] was “Active”. For the same molecule, the Activity [11] was “Active”, the Activity [12] was “Active” and the Activity [2] was “Active”. For the same molecule, the Activity [13] was “Active”, the Activity [3] was “Active” and the Activity [14] was “Active”. The Activity [4] was “Active” and the Activity [15] was “Active”.
For `C#CCSC[C@H](N)C(=O)O`, the Activity [16] was 20.2 µmol/L, the Activity [13] was “Active” and the Activity [14] was “Active”. The Activity [15] was “Active”.
